Results reported in the NIST ThermoML archive (doi:10.1016/j.fluid.2017.07.002).
Several values for one entry are separate records, joined by “and”; a condition that tells them apart may be missing. Equal values may be shown once. Numbers after ± are expanded uncertainties.

Settings: Liquid, Closed cell (Static) method

## FC(F)(F)F [tetrafluoromethane]
153.23 K
  vapor or sublimation pressure: 171.92 ± 5.7 kPa
193.43 K
  vapor or sublimation pressure: 1205.3 ± 6.8 kPa

## CC [ethane]
173.63 K
  vapor or sublimation pressure: 53.57 ± 0.85 kPa
177.24 K
  vapor or sublimation pressure: 66.42 ± 1.1 kPa
183.28 K
  vapor or sublimation pressure: 94.31 ± 1.1 kPa
228.82 K
  vapor or sublimation pressure: 673.93 ± 3.5 kPa

## FC(F)(F)C(F)(F)C(F)(F)F [octafluoropropane]
223.21 K
  vapor or sublimation pressure: 53.1 ± 1.9 kPa
272.76 K
  vapor or sublimation pressure: 408.18 ± 2 kPa

## FC(F)F [trifluoromethane]
173.86 K
  vapor or sublimation pressure: 34.35 ± 0.58 kPa
177.11 K
  vapor or sublimation pressure: 41.46 ± 0.77 kPa
183.19 K
  vapor or sublimation pressure: 62.33 ± 0.9 kPa
183.2 K
  vapor or sublimation pressure: 62.29 ± 0.92 kPa
193.19 K
  vapor or sublimation pressure: 113.55 ± 3.3 kPa
228.83 K
  vapor or sublimation pressure: 600.35 ± 3.2 kPa
233.16 K
  vapor or sublimation pressure: 707.03 ± 6.9 kPa
273.25 K
  vapor or sublimation pressure: 2502.8 ± 13 kPa

## C=C(F)C(F)(F)F [2,3,3,3-tetrafluoro-1-propene]
193.26 K
  vapor or sublimation pressure: 5.46 ± 0.38 kPa
193.3 K
  vapor or sublimation pressure: 5.69 ± 0.38 kPa
223 K
  vapor or sublimation pressure: 37.74 ± 0.42 kPa
223.08 K
  vapor or sublimation pressure: 37.41 ± 1.1 kPa
223.11 K
  vapor or sublimation pressure: 37.48 ± 1.1 kPa
233.02 K
  vapor or sublimation pressure: 61.64 ± 0.61 kPa
233.04 K
  vapor or sublimation pressure: 62.24 ± 1.3 kPa
272.69 K
  vapor or sublimation pressure: 310.8 ± 1.5 kPa
272.75 K
  vapor or sublimation pressure: 310.85 ± 1.5 kPa and 310.76 ± 1.5 kPa
272.78 K
  vapor or sublimation pressure: 311.18 ± 1.5 kPa
272.8 K
  vapor or sublimation pressure: 311.8 ± 1.5 kPa
272.81 K
  vapor or sublimation pressure: 311.46 ± 1.5 kPa
